The results in this text go back to ChEMBL document CHEMBL3822406, “Synthesis and evaluation of a series of 4-azaindole-containing p21-activated kinase-1 inhibitors” (Bioorg Med Chem Lett, 2016).

In brackets after ≈: the same amount, converted by molar mass.

For data set [1], the target named is Serine/threonine-protein kinase PAK 1/PAK 2/PAK 3 (Homo sapiens, UniProt O75914+Q13177+Q13153). As to the kind of experiment: Inhibition of PAK1/2/3 in human EBC1 cells assessed as MEK1 phosphorylation level at Serine298 residue incubated for 2 hrs by HTRF assay. The format is cell-based. (In general: TR-FRET usually uses a lanthanide donor and a delayed reading to cut background.)

Data set [2] addresses Serine/threonine-protein kinase PAK 1 (Homo sapiens, UniProt Q13153). The data set can be described thus: Inhibition of recombinant human GST-tagged PAK1 kinase domain expressed in baculovirus expression system assessed as suppression of phosphorylation of coumarin/fluorescein-labelled FRET peptide substrate at Ser/Thr19 residues preincubated with substrate for 10 mins followed by enzyme addition measured after 60 mins by Z-Lyte assay.

A short description of data set [3]: Kinetic solubility at pH 7.4 by high throughput assay. The format is physicochemical. To be noted: buffer, read-out: Kinetic_solubility.
Data set [4] can be described thus: Apparent permeability from apical to basolateral side in MDCK cells. The format is ADME, cell-based, Canis lupus familiaris. To be noted: dog.
The nature of data set [5]: Fraction unbound in mouse plasma. The class given is ADME, cell-free.
Another data set has as its system Hepatocyte. The data set can be described thus: Drug uptake in mouse hepatocytes measured at 30 secs relative to control. The format is ADME, cell-based. To be noted: 0.5 min.
Data set [6] addresses Serine/threonine-protein kinase PAK 4 (Homo sapiens, UniProt O96013). As to the kind of experiment: Inhibition of human recombinant GST-tagged PAK4 kinase domain (295 to 591 residues) expressed in baculovirus expression system assessed as suppression of phosphorylation of coumarin/fluorescein-labelled FRET peptide substrate at Ser/Thr19 residues preincubated with substrate for 10 mins followed by enzyme addition measured after 60 mins by Z-Lyte assay.

Data set [7] relates to MDR1 (human). The data set can be described thus: Efflux ratio of apparent permeability from basolateral to apical side over apical to basolateral side in MDCK cells expressing human MDR1. The class given is ADME, cell-based, Canis lupus familiaris. To be noted: dog.
The nature of data set [8]: Lipophilicity, logD of compound at pH 7.4. The format is physicochemical. To be noted: buffer.
A short description of data set [9]: Plasma clearance in nude mouse at 2 mg/kg, iv. The class given is ADME, organism-based.
For data set [10], the system named is MDR1 (human). The data set can be described thus: Apparent permeability from apical to basolateral side in MDCK cells expressing human MDR1. The class given is ADME, cell-based, Canis lupus familiaris. To be noted: dog.
Data set [11] in a line: Half life in nude mouse at 2 mg/kg, iv. The format is ADME, organism-based. To be noted: in vivo.
Data set [12] is described as follows: Volume of distribution at steady state in nude mouse at 2 mg/kg, iv. To be noted: in vivo, read-out: Vdss. The format is ADME, organism-based.
The next data set concerns Mus musculus. As to the kind of experiment: Unbound clearance in nude mouse at 2 mg/kg, iv. The format is ADME, organism-based. To be noted: in vivo.
In data set [13] the test system is MDR1 (human). As to the kind of experiment: Apparent permeability from basolateral to apical side in MDCK cells expressing human MDR1. The format is ADME, cell-based, Canis lupus familiaris. To be noted: dog.
The nature of data set [14]: Cmax in nude mouse at 25 mg/kg, po. The format is ADME, organism-based. Also noted: dose 25 mg/kg, route oral. To be noted: in vivo.
Data set [15] in a line: Oral bioavailability in nude mouse at 25 mg/kg. To be noted: in vivo. The format is ADME, organism-based.
Data set [16] can be described thus: Tmax in nude mouse at 25 mg/kg, po. The class given is ADME, organism-based. To be noted: in vivo.

Sequence of Serine/threonine-protein kinase PAK 1 (Q13153 whole entry, the tested form may be a part): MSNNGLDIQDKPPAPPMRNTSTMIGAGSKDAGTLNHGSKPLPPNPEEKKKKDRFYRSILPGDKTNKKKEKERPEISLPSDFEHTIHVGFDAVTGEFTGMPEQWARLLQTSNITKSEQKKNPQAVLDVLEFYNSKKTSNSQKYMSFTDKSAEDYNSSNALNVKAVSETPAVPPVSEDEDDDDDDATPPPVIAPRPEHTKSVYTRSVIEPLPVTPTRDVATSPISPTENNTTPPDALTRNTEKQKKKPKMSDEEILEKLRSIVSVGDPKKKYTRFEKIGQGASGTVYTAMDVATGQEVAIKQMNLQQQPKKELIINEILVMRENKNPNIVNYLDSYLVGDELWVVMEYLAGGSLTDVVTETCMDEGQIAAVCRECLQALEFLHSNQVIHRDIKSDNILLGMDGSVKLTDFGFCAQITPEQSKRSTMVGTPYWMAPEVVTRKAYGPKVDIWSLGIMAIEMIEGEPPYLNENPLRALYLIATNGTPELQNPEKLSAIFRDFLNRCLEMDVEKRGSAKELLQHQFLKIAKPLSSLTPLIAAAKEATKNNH
Sequence of Serine/threonine-protein kinase PAK 4 (O96013 whole entry, the tested form may be a part): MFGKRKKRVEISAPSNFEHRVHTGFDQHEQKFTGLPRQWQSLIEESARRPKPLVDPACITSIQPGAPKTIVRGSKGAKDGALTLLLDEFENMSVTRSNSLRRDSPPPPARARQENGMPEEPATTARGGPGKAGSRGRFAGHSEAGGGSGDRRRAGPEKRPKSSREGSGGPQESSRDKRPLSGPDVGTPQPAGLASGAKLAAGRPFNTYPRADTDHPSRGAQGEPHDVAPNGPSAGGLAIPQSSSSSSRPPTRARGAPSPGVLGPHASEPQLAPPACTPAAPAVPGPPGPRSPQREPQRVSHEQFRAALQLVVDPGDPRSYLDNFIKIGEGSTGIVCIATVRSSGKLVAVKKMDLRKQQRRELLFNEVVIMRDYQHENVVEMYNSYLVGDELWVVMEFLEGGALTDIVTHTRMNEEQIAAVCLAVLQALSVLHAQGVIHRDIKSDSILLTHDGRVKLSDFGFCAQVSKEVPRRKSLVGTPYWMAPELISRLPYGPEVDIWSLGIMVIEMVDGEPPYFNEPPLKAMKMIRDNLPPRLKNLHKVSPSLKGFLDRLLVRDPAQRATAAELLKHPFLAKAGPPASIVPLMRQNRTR

As usually defined, the IC50 is the concentration needed to halve the response being measured. As usually defined, the Ki is the equilibrium dissociation constant of an inhibitor or competing ligand from its target. As for `C[C@H](Nc1nccc(Nc2cc(C3CC(F)(F)C3)[nH]n2)n1)c1ccc2[nH]ccc2n1`, the IC50 in data set [1] came out at 0.25 µM. In [2], the Ki came out at 0.068 µM.

Take `C[C@@H](c1ccc2[nH]ccc2n1)N(C)c1nccc(Nc2cc(C3CC3)[nH]n2)n1`: in data set [1], the IC50 came to 0.24 µM. For the same molecule, the Ki in data set [2] came out at 0.018 µM.

In the case of `CC[C@H](Nc1nccc(Nc2cc(C3CC3)[nH]n2)n1)c1ccc2[nH]ccc2n1`, in data set [1], the concentration for half-maximal inhibition (IC50) was found to be 0.18 µM. Besides, the Ki in data set [2] was determined as 0.023 µM.

As a reminder, the Papp A→B is the apparent permeability from the apical to the basolateral side of a cell layer. By fraction unbound is commonly meant free concentration divided by total concentration. High values mean much free substance, low ones little free substance. Consider `C[C@H](Nc1nccc(Nc2cc(C3CC3)[nH]n2)n1)c1cc2cc[nH]c2cn1`, for which, in [3], the solubility kinetic was 73 µM (≈ 26.3 µg/mL). The Papp A→B in [4] amounted to 9 nm/s. In [1], the 50% inhibitory concentration (IC50) was found to be 0.068 µM. For the same molecule, the fraction unbound in [5] worked out at 0.039.

As to `C[C@H](Nc1nccc(Nc2cc(C3CC3)[nH]n2)n1)c1nc2cc[nH]c2cc1Cl`, in data set [1], the IC50 is 0.19 µM. In addition, the Ki in data set [2] was 0.119 µM.

For `c1cc(Nc2cc(C3CC3)[nH]n2)nc(NCc2ccc3nccn3c2)n1`, in data set [2], the Ki worked out at 0.36 µM.

In the case of `CCCCNC(=O)NS(=O)(=O)c1ccc(C)cc1` [TOLBUTAMIDE], the “fold change (FC)” value with Hepatocyte came out at 1.4.

Consider `C[n+]1ccc(-c2ccccc2)cc1`, for which the “fold change (FC)” value with Hepatocyte stood at 4.7.

As for `c1cc(Nc2cc(C3CC3)[nH]n2)nc(NCc2ccc3[nH]ccc3n2)n1`, the Ki is 0.12 µM in [2] and 0.505 µM in [6].

With `O=C(O)C[C@H](O)C[C@H](O)/C=C/c1c(C2CC2)nc2ccccc2c1-c1ccc(F)cc1` [PITAVASTATIN], the “fold change (FC)” value with Hepatocyte is on record as 6.6.

The efflux ratio is a quotient of directional permeabilities that is used to spot active efflux. Usually logD stands for lipophilicity at a set pH, counting ionised and neutral species. What is called clearance is a measure of how efficiently the substance is removed, as volume per time. The half-life is the time needed for the level to fall by half in the phase considered. Higher therefore signals slow loss. The term Papp B→A denotes how fast a substance crosses the layer from the basolateral side. Consider `C[C@H](Nc1nccc(Nc2cc(C3CC3)[nH]n2)n1)c1ccc2[nH]ccc2c1`, for which the efflux ratio in the data set with MDR1 (human) [7] amounted to 27.7. Moreover, the solubility kinetic in data set [3] was determined as 69 µM (≈ 24.8 µg/mL). The Papp A→B in data set [4] came to 20 nm/s; with MDR1 (human) [10], 5 nm/s. The IC50 in [1] is 0.12 µM. Further, the logD in data set [8] stood at 3.7. This molecule also yielded a clearance in [9] of 9.6 L/h/kg. Further, in data set [11], the half-life is 19.2 min. Also, the Vd in data set [12] is 4.5 L/kg. The molecule further came in with a CL free in the data set on Mus musculus of 1200 L/h/kg. The molecule also registered a fraction unbound in [5] of 0.008. For the same molecule, the “fold change (FC)” value in the data set on Hepatocyte came out at 1.8. Also, the basolateral-to-apical permeability (Papp B→A) in the data set on MDR1 (human) [13] worked out at 146 nm/s.

By Cmax is commonly meant the highest concentration seen after dosing. As usually defined, the bioavailability is the share of a dose that reaches the circulation, judged against a reference dose that is usually intravenous. For orientation: Tmax means the time from dosing to the highest level. On to `C[C@H](Nc1nccc(Nc2cc(C3CC3)[nH]n2)n1)c1ccc2[nH]ccc2n1`, for which the efflux ratio in the data set with MDR1 (human) [7] was 59. In addition, the solubility kinetic in data set [3] was found to be 133 µM (≈ 47.9 µg/mL). The Papp A→B in [4] is 43 nm/s; in the data set on MDR1 (human) [10] it was 2 nm/s. The IC50 in [1] came out at 0.051 µM. Further, the logD in data set [8] is 2.7. Further, the clearance in [9] is 2.88 L/h/kg. This molecule showed a Cmax in [14] of 4.7 µM. This molecule had a half-life in data set [11] of 37.8 min. Further, the bioavailability in data set [15] was found to be 4.8%. Moreover, the Vd in data set [12] worked out at 1.65 L/kg. In addition, the Tmax in [16] worked out at 34.8 min. Moreover, the inhibition constant Ki in data set [2] stood at 0.032 µM. This molecule also yielded a CL free in the data set with Mus musculus of 64.02 L/h/kg. In [5], the free fraction (fraction unbound) was 0.045. The “fold change (FC)” value in the data set on Hepatocyte is 2.7. In addition, the apparent permeability from basolateral to apical (Papp B→A) in the data set with MDR1 (human) [13] came out at 98 nm/s.

On to `C[C@@H](Nc1nccc(Nc2cc(C3CC3)[nH]n2)n1)c1ccc2[nH]ccc2n1`, for which, in data set [2], the IC50 was 0.685 µM.

Regarding `C[C@H](Nc1nccc(Nc2cc(C3CC3)[nH]n2)n1)c1ccc2[nH]cc(Cl)c2n1`, in data set [1], the IC50 turned out to be 0.16 µM. Besides, the Ki in data set [2] amounted to 0.006 µM.

Consider `C[C@H](Nc1nccc(Nc2cc([C@H]3C[C@@H]3F)[nH]n2)n1)c1ccc2[nH]ccc2n1`, for which the solubility kinetic in data set [3] worked out at 104 µM (≈ 39.4 µg/mL). Also, in [4], the Papp A→B is 37 nm/s.

As to `C[C@H](Nc1nccc(Nc2cc(C3CC3)[nH]n2)n1)c1nc2cc[nH]c2cc1F`, in data set [3], the solubility kinetic was 58 µM (≈ 21.9 µg/mL). Besides, in data set [4], the Papp A→B was determined as 83 nm/s. Further, the IC50 in data set [1] amounted to 0.057 µM. Besides, in data set [2], the Ki came to 0.004 µM. The molecule also came in with a fraction unbound in [5] of 0.014.

In the case of `C[C@H](Nc1nccc(Nc2cc([C@@H]3C[C@H]3F)[nH]n2)n1)c1ccc2[nH]ccc2n1`, the solubility kinetic in data set [3] was determined as 73 µM (≈ 27.6 µg/mL). The Papp A→B in [4] was 42 nm/s. This molecule returned a fraction unbound in data set [5] of 0.047.
